In patent publication US10716798B2, “Compositions and methods for tranquilizing heart muscle” (THE REGENTS OF THE UNIVERSITY OF MICHIGAN, priority 2007, dated 2020):

Key:
adult cardiomyocyte = experiment: PKC activation and adult cardiomyocyte contractile function; assay type: cell-based
Method: In addition to continued acceleration of relengthening in cardiomyocytes, upon administration of Vitamin D5 the PKC targets phospholamban and cardiac troponin I (cTnI) are specifically phosphorylated by PKC within approximately 60 minutes. Without being bound to theory, it is believed that phosphorylation of phospholamban can increase Ca^2+ sequestration into the sarcoplasmic reticulum while cardiac troponin C I phosphorylation decreases myofilament Ca^2+ sensitivity, two particularly significant events in increasing the relaxation of contractile function in the adult cardiomyocyte.
The pharmaceutical compositions and methods described herein illustrate a mechanism to accelerate relaxation of cardiomyocyte contractile function via direct and rapid cellular action upon administration of 1α25-dihydroxyvitamin D5. These acute effects can be blocked by PKC inhibitors, illustratively bis-I. The phosphorylation of these key cardiac markers phospholamban and troponin C I develop within the same time period as the initial rapid decrease in peak shortening, and acceleration of contraction and relaxation rates.

SHHF rats [1] = experiment: Systolic blood pressure by tail-cuff in SHHF rats; assay type: in vivo, rat; conditions: 100 ng/100 g bw, SQ, 13 weeks
Excerpt: The effects of Vitamin D compounds including Vitamin D5 and D3 on the contraction of cardiomyocytes in vivo can be studied using normal and heart failure prone rats. To test the effect of Vitamin D compounds on heart failure rats, the present inventors selected the strain of rats called Spontaneously Hypertensive Heart Failure (SHHF) rats obtained from Charles River Laboratories, Wilmington Mass., USA. The SHHF rat was developed by backcrossing the SHROB rat to the SHR/N rat. They are characterized as naturally developing congestive heart failure, hypertension, nephropathy, obesity, insulin resistance, hyperinsulinemia and Type 2 diabetes spontaneously. […] Obesity is expressed as an autosomal recessive (cp/cp) trait, and hypertension is multifactorial (Yen at al., 1974). The CHF trait has been maintained through at least 15 generations. The mode of inheritance of the CHF is probably multifactorial, much like hypertension. These rats develop many of the clinical signs of CHF: generalized and subcutaneous edema, hydrothorax, ascites, dyspnea, cyanosis, enlarged hearts, left atrial thrombosis, and hyperemia of the lungs, liver, and kidneys. These rats are hypertensive, but blood pressure falls to normal levels with the onset of severe CHF. […] These morphologic changes probably reflect early compensatory LV hypertrophy at 6-10 months of age. […]

SHHF rats [2] = experiment: Resting heart rate in SHHF rats after Vitamin D treatment; assay type: in vivo, rat; conditions: 13 weeks; for Heart rate vs control SHHF rats: SQ
Excerpt: The effects of Vitamin D compounds including Vitamin D5 and D3 on the contraction of cardiomyocytes in vivo can be studied using normal and heart failure prone rats. To test the effect of Vitamin D compounds on heart failure rats, the present inventors selected the strain of rats called Spontaneously Hypertensive Heart Failure (SHHF) rats obtained from Charles River Laboratories, Wilmington Mass., USA. The SHHF rat was developed by backcrossing the SHROB rat to the SHR/N rat. They are characterized as naturally developing congestive heart failure, hypertension, nephropathy, obesity, insulin resistance, hyperinsulinemia and Type 2 diabetes spontaneously. […] Obesity is expressed as an autosomal recessive (cp/cp) trait, and hypertension is multifactorial (Yen at al., 1974). The CHF trait has been maintained through at least 15 generations. The mode of inheritance of the CHF is probably multifactorial, much like hypertension. These rats develop many of the clinical signs of CHF: generalized and subcutaneous edema, hydrothorax, ascites, dyspnea, cyanosis, enlarged hearts, left atrial thrombosis, and hyperemia of the lungs, liver, and kidneys. These rats are hypertensive, but blood pressure falls to normal levels with the onset of severe CHF. […] These morphologic changes probably reflect early compensatory LV hypertrophy at 6-10 months of age. This is followed by LV failure with elevated right heart pressures and RVFW hypertrophy, finally leading to biventricular CHF. This progression is similar to that of hypertensive heart disease in humans. Other similarities between the SHHF model and human hypertensive-diabetic cardiomyopathy (Factor et al., 1980) and another rat model of hypertension and diabetes (Factor et al., 1983) include increased heart weight and prominent interstitial fibrosis. Pathologic alterations in SHHF Rat hearts corresponding to human dilated cardiomyopathy include four-chamber dilation, intracardiac thrombi, myocyte hypertrophy, and interstitial fibrosis (Unveferth et al., 1986).
Five treatment groups were established using SHHF rats. […]

[3] = tested on: Vitamin D receptor (VDR) in HL-1 cardiomyocytes; experiment: Induction of VDR in HL-1 cardiomyocytes (Western blot); assay type: cell-based; conditions: HL-1 cardiomyocytes treated 48 hours, Western analysis, vs vehicle
Method: HL-1 cardiomyocyte cells were grown until confluent then split, and an equal amount (8×10^6 cells) of cells were plated for 24 hours and then treated for 48 hours either with vehicle (control) or with the indicated amount of Vitamin D compound. Cells were then harvested and subjected to Western analysis.

SHHF rats [4] = experiment: Cardiac hemodynamic parameters by echocardiography in SHHF rats; assay type: in vivo, rat; conditions: for E/A transmitral flow ratio, change vs control / Cardiac index vs control / Stroke volume vs control: 5 days per week for 13 weeks
Method: (§1) Five treatment groups were established using SHHF rats. In each cohort (5-6 rats), the diets were substantially identical, rats were each fed a high salt diet (8% NaCl) (Harlan Teklad diet TD92012, Madison Wis. USA) and were accommodated equally. All treatment groups received a single once daily administration subcutaneously (SQ) of a Vitamin D compound at varying concentrations five times per week. The Vitamin D compound was dissolved in 1,2 propandiol containing 0.7% ethanol. Control SHHF rats were dosed with vehicle control alone. The animals were dosed for a period of 13 weeks before they were examined by echocardiography explained in more detail below. The first group comprised a control group in which they received a vehicle alone treatment lacking any Vitamin D. The second group consisted of SHHF rats injected with 18 ng 1,25 dihydroxy Vitamin D3 per dose, one dose per day treated animals. The third group consisted of SHHF rats injected with 33 ng of 1α-hydroxysitocalciferol per dose, one dose per day treated animals. The fourth group consisted of SHHF rats injected with 100 ng of 1α-hydroxysitocalciferol per dose, one dose per day treated animals. The fifth group consisted of SHHF rats injected with 300 ng of 1α-hydroxysitocalciferol per dose, one dose per day treated animals.
After 13 weeks of treatment with the Vitamin D compounds or vehicle control alone, the SHHF rat's cardiac hemodynamic condition was measured, recorded and analyzed for the presence or absence of cardiac tranquilization and reversal of heart failure symptoms.
Non-invasive recording electrocardiograms and echocardiography in conscious rats: Two-dimensional and M-mode echocardiographic images will be recorded using a GE S10 MHz phased-array transducer, connected to a General Electric, Vivid 7 Ultrasound System. The System used for ECG was the AnonyMOUSE ECG Screening System (Mouse Specifics, Boston, Mass. USA). The rats are placed on the instrument's platform and acclimated for 10 min prior to ECG recordings. Animals are anesthetized using an isoflurane anesthetic machine, first by introducing 4% isoflurane and 1 liter of oxygen to an induction chamber. When rats are in lateral recumbency and the breathing is slowed, they are moved to the table where they are placed on a warming pad to maintain body temperature. Their nose is placed in a cone which supplies 1-2% isoflurane and 1 liter of oxygen to maintain a surgical plane of anesthesia. The hair is removed from the upper abdominal and thoracic area with depilatory cream. ECG is monitored via non-invasive resting ECG electrodes (trimmed to fit) placed on the paw pads. The echocardiogram takes approximately 10 minutes.
Transthoracic echocardiography is performed in the supine or left lateral position. Data are analyzed by proprietal software and all rats ECG intervals analyzed by Student's two-tail t-test. […]

[5] = Total body weight of SHHF rats; assay type: in vivo, rat; conditions: 100 ng/100 g body weight, SQ, 13 weeks
Method: as §1
Blood pressure measurement by tail-cuff artery occlusion.

[6] = tested on: atrial natriuretic peptide (ANP) in HL-1 cardiomyocytes; experiment: Repression of atrial natriuretic peptide (ANP) in HL-1 cardiomyocytes (Western blot); assay type: cell-based; conditions: HL-1 cardiomyocytes treated 48 hours, Western analysis, vs vehicle
Method: Induction of VDR and repression of ANP by calcitriol (1,25-(OH)2vitamin-D3) and 1 alpha analogs (1α-Hydroxyitamin-D3 and 1α-hydroxysitocalciferol) is shown in the Western blot of FIG. 7. HL-1 cardiomyocyte cells were grown until confluent then split, and an equal amount (8×10^6 cells) of cells were plated for 24 hours and then treated for 48 hours either with vehicle (control) or with the indicated amount of Vitamin D compound. Cells were then harvested and subjected to Western analysis.

[7] = 300 ng/day, listed as Vitamin D5

| SMILES | Time to phosphorylation of phospholamban and cardiac troponin I (cTnI) by PKC (adult cardiomyocyte; cardiomyocytes, upon administration of Vitamin D5) | Relaxation in adult cardiomyocyte contractile function (adult cardiomyocyte; via PKC activation) | Systolic blood pressure vs control SHHF rats (SHHF rats [1]) | Heart rate vs control SHHF rats (SHHF rats [2]; 33 ng/100 g body weight) | Heart rate vs control SHHF rats (SHHF rats [2]; 300 ng/day) | Induction of VDR [3] | E/A transmitral flow ratio, change vs control (SHHF rats [4]; 100 ng/day) | E/A transmitral flow ratio, change vs control (SHHF rats [4]; 100 ng/day, listed as Vitamin D5) | E/A ratio (SHHF rats [4]; 300 ng/day, 13 week treatment) | Cardiac index vs control (SHHF rats [4]; 300 ng/day) | E/A transmitral flow ratio, change vs control (SHHF rats [4]; 300 ng/day) | Stroke volume vs control (SHHF rats [4]; 300 ng/day) | Cardiac index vs control (SHHF rats [4]; [7]) | Stroke volume vs control (SHHF rats [4]; [7]) | Stroke volume, untreated SHHF rats in comparison to treated (SHHF rats [4]; all doses of Vitamin D5 (33, 100, 300 ng/day), 13 weeks) | Total body weight at 30 weeks age vs control SHHF rats [5] | Repression of ANP expression [6] | Heart rate vs control SHHF rats or Wistar rats (SHHF rats [2]; 18 ng 1,25(OH)2D3, SQ) |
| --- | --- | --- | --- | --- | --- | --- | --- | --- | --- | --- | --- | --- | --- | --- | --- | --- | --- | --- |
| C=C1/C(=C\C=C2/CCC[C@]3(C)[C@@H]([C@H](C)CC[C@@H](CC)C(C)C)CC[C@@H]23)C[C@@H](O)C[C@@H]1O [1α-hydroxysitocalciferol, 1-α-hydroxy-2,4-ethyl-9,10-seco-5,7,10(19)-cholestatrien-3 β-ol] | ≤ 60 min | accelerated relaxation | significant decreased BP | decrease | increase in heart rate | considerable induction | statistically significant reduction | significant reduction | about 0.99 | statistically significant reduction | statistically significant reduction | statistically significant reduction | significant reduction | Most pronounced | statistically significant | significant increased body weight | remarkable repression |  |
| C=C1/C(=C\C=C2/CCC[C@]3(C)[C@@H]([C@H](C)CCCC(C)C)CC[C@@H]23)C[C@@H](O)C[C@@H]1O [1α-Hydroxyitamin-D3, reference compound] |  |  |  |  |  | considerable induction |  |  |  |  |  |  |  |  |  |  | repression |  |
| C=C1/C(=C\C=C2/CCC[C@]3(C)[C@@H]([C@H](C)CCCC(C)(C)O)CC[C@@H]23)C[C@@H](O)C[C@@H]1O [1,25(OH)2D3, 1,25-dihydroxyvitamin D3, reference compound] |  |  |  |  |  |  |  |  |  |  |  |  |  |  |  |  | repression | higher heart rates albeit not statistically significant |
